Tests used:
PPAR α = target: T1, PPAR α (Homo sapiens, UniProt Q07869); assay: PPAR α activation, tkPPRE-luciferase reporter in transfected CV-1 cells; type: cell-based; settings: 24 hours
T1 construct: expressed in transfected cells; host or cells: CV-1 cells
T1 sequence (Q07869 1-468): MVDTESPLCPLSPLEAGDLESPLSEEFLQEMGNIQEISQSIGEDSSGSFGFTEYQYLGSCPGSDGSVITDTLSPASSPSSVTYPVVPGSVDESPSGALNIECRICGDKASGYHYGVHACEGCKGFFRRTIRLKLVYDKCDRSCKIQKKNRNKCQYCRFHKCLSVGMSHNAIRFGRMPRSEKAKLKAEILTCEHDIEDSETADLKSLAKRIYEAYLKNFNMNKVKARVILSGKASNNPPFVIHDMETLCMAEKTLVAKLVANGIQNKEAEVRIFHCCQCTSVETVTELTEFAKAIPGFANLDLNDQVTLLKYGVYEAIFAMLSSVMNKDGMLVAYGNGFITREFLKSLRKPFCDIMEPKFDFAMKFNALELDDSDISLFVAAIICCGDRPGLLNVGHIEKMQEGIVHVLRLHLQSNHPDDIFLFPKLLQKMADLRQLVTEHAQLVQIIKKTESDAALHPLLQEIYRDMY
T1 sequence (P19793 1-462 partner): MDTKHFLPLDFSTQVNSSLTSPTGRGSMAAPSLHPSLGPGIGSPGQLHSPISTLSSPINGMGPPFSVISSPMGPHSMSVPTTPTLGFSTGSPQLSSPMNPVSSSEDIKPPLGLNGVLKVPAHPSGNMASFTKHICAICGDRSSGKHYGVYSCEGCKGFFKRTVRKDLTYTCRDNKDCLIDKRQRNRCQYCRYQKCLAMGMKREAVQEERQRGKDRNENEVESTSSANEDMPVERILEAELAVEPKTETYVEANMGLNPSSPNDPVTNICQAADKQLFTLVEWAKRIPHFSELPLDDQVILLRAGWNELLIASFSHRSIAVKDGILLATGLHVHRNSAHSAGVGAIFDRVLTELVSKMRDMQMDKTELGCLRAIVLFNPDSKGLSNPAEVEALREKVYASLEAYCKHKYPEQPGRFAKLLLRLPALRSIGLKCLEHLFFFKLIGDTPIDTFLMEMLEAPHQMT
Protocol: To determine the regulating activity of the compound prepared by Example 1 on the PPAR α activation, following experiment was performed.
CV-1 cells were transiently cotransfected with both tkPPRE-luciferase and pCMV-PPAR α, together with pCMV-RXR and pCMV-β-Gal as a transfection control. Cells were treated with DHCA or various fractions, i.e. hexane and ethylacetate fractions obtained from this Cucurbitaceae family plant extract at the concentration of 100 ug/ml. Cells were also treated with DMSO or fenofibrate (100 uM, Sigma Co.), which is a well known agonist of PPARα. After 24 hours, cell lysates were prepared for the luciferase assay, and the activities were normalized to β-Gal activities.

Preadipocytes (3T3-L1) = assay: Inhibition of adipocyte differentiation and triglyceride level (Oil Red O staining); type: cell-based
Protocol: To determine the inhibiting activity of the compound prepared by Examples 1, i.e., dehydrodiconiferylalcohol (DHCA), on the adipocytes differentiation and triglyceride level, following experiment was performed.
Preadipocytes (3T3-L1) purchased from ATCC (American […], USA) were cultured in RPMI medium containing 10% FBS and MDI cocktail (isobutylmethylxanthine, dexamethasone, insulin) was added thereto for differentiating into mature adipocytes. After two days, the medium was replaced and treated with only insulin. Thereafter, the medium was replaced and equal concentration of insulin was treated again every other day. DHCA ranging from 10 to 1000 ug/ml of the concentrations was treated when the adipocyte differentiation was induced and equal concentration of the DHCA was treated at every replacement of the medium. Troglitazone (Sigma Co.) and 10 uM SB203580 (Sigma Co.) were treated as control groups and 0.01% ethanol was used as a vehicle control. After eight days lapsed, the accumulated fat within differentiated cell was stained with Oil Red 0 staining reagent and the absorbance was determined with optical density qualitatively at 490 nm. The inhibition percentage (%) was calculated by following Empirical Formula 1. The Inhibition Percentage (%)=[O.D. of test group]/[O.D. value of control group]×100 Empirical Formula 1

COc1cc(C2Oc3c(OC)cc(/C=C/CO)cc3C2CO)ccc1O (stereo not shown) [DHCA, dehydrodiconiferyl alcohol]
increase of luciferase activity as compared with control (PPAR α; 100 ug/ml, normalized to β-Gal): 10 folds
magnitude of PPAR α activation compared with fenofibrate (PPAR α; DHCA 100 ug/ml vs fenofibrate 100 uM): higher than that of fenofibrate treated cells
anti-adipogenic activity compared with SB203580 (Preadipocytes (3T3-L1); 3T3-L1, SB203580 10 uM as control): comparable to that of SB203580
level of produced triglycerides and adipocytes differentiation (Preadipocytes (3T3-L1); 3T3-L1 induced with MDI, 8 days, Oil Red O, O.D. 490 nm, DHCA 10 to 1000 ug/ml): significantly reduced in a dose dependent manner
